This is an account of results in patent US5252463A, “Clipsin, a chymotrypsin-like protease and method of using same” (The Du Pont Merck Pharmaceutical Company, priority 1990, dated 1993).

Like-named read-outs stand apart in the source and are kept apart here. Starred links: 1 amine or outer side, 2 acyl side, 3 side chain; linkers in the order of their positions; H or OH if unused. Residues, ends and D or L forms follow the SMILES beside them. *: point of attachment. pNA = O=[N+]([O-])c1ccc(N*)cc1; Suc = O=C(CCC(=O)[*:2])[*:1]; MeOSuc = COC(=O)CCC(=O)*

Broadly, the Km is the substrate concentration at which the rate is half of its maximum. What is called kcat is the number of substrate molecules converted per active site and unit of time at saturation.

Data set [1] relates to T1, COC(=O)CCC(=O)N[C@@H](C)C(=O)N[C@@H](C)C(=O)N1CCC[C@H]1C(=O)N[C@@H](CCSC)C(=O)Nc1ccc([N+](=O)[O-])cc1.
T1 construct: mature chains cut from chymotrypsinogen A
As to the kind of experiment: Hydrolysis kinetics of tetrapeptide p-nitroanilide substrates by chymotrypsin. The format is biochemical, bovine. Conditions: other: chymotrypsin, pH 7.5, 50° C., 10% dimethyl sulfoxide. An excerpt: (§1) Correlation coefficients were greater than 0.99.

Data set [2] relates to T2, C[C@H](NC(=O)CCC(=O)O)C(=O)N[C@@H](C)C(=O)N1CCC[C@H]1C(=O)N[C@@H](Cc1ccccc1)C(=O)Nc1ccc([N+](=O)[O-])cc1.
T2 construct: mature chains cut from chymotrypsinogen A
Described as above. The format is biochemical, bovine. Conditions: other: chymotrypsin, pH 7.5, 50° C., 10% dimethyl sulfoxide.
Text: as §1

The target of data set [3] is T3, clipsin (Rattus norvegicus, UniProt P09650).
T3 sequence (P09650 21-260): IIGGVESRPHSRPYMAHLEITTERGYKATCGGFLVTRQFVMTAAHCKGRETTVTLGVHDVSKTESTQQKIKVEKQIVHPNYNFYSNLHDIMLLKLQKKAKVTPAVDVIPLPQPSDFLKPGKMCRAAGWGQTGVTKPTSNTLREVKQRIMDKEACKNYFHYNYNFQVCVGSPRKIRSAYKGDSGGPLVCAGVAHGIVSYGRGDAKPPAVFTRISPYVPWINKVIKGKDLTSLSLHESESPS
As to the kind of experiment: Enzymography: clipsin activity in 125I-gelatin-containing polyacrylamide gels. More on the design: Mr 25,000 band in gelatin enzymography. The format is biochemical. Conditions: for Inhibition of clipsin by peptide boronic acids (in words): 10 μM final concentrations.

For data set [4], the target named is T4, human leukocyte cathepsin G (Homo sapiens, UniProt P08311).
T4 sequence (P08311 21-244): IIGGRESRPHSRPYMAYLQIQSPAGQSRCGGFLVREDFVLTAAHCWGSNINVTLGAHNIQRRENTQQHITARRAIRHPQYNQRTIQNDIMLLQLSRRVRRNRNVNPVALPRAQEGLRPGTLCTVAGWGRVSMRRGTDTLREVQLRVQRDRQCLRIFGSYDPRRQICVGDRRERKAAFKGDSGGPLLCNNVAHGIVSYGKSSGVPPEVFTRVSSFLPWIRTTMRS
As to the kind of experiment: Hydrolysis kinetics of tetrapeptide p-nitroanilide substrates by cathepsin G. The format is biochemical. The settings on record: pH 7.5, 50° C.; for Km: 10% dimethyl sulfoxide; for kcat: α-1-AChy-titrated enzyme concentration.
Text: as §1

Data set [5] addresses T5, bovine chymotrypsin (Bos taurus, UniProt P00766).
T5 construct: mature chains cut from chymotrypsinogen A
As to the kind of experiment: Hydrolysis kinetics of tetrapeptide p-nitroanilide substrates by chymotrypsin. The format is biochemical. The settings on record: ratio chymotrypsin/clipsin for the same substrate.
Text: as §1

Data set [6] has as its target T3, clipsin. Briefly: In vitro chromogenic substrate assay: inhibition of Suc-Ala-Ala-Pro-Phe-p-nitroanilide hydrolysis by Mg2+ extract. The format is biochemical. Set-up: Forebrains from 5-day-old rats were stripped of meninges and homogenized; from tissue; host or cells: forebrain of 5-day-old rats, membrane-associated, 1M MgCl2 extract (partially enriched). Conditions: for remaining activity at 10 µM: read-out: Relative Clipsin Activity (ΔOD as a percentage of the control value).

Data set [7] deals with major Coomassie Blue-detectable proteins from rat cortical membranes. As to the kind of experiment: Breakdown of rat cortical membrane proteins by Mg2+ extract, Coomassie Blue-stained gels. The format is biochemical. The settings on record: inhibitor included in the incubation. How it is done: (§2) Mg^2+ extract at 60% (about 4.2 nM clipsin final) was incubated with a crude membrane fraction from adult rat cortex (2.8 mg/mL protein final; Siman et al., (1989) J. Neurosci. 9, 1579-1590). Proteolysis reactions were performed at 37° C. for 1 h before quenching the reactions with sodium dodecyl sulfate-containing electrophoresis sample buffer and heating the samples to 90° C. for 5 min. Overall breakdown of proteins were determined by Coomassie Blue staining of gels, whereas β-APP degradation was assessed by Western blotting of identical gels. β-APP was visualized as 110-130-kDa bands using antiserum 385 as described previously (Siman et al., (1989) Neuron 3, 275-285). β-APP-immunostained polypeptides on Western blots and the corresponding major Coomassie Blue-stained protein bands on sodium dodecyl sulfate-containing polyacrylamide gels were quantified by scanning laser densitometry.
We began looking for potential endogenous substrates of clipsin by incubating rat cortical membranes with Mg^2+ extract and measuring loss of the major protein bands following separation of the incubated samples by polyacrylamide gel electrophoresis. […] No other bands varied more than 25%, and no protease activity endogenous to cortical membranes could be detected when comparing 37° C. incubated membranes with parallel samples kept on ice.

A further data set relates to β-APP. Briefly: β-APP degradation in rat cortical membranes by Mg2+ extract, Western blot with antiserum 385. The format is biochemical. Conditions: inhibitor included in the incubation. As for the experimental part:
as §2
For orientation: In western blotting, separated proteins are transferred to a membrane and probed.

For data set [8], the target named is T5, bovine chymotrypsin. Conditions: cited from earlier work.
For the next data set, the system named is human cathepsin G. Conditions: cited from earlier work.
Data set [9] concerns the target T3, clipsin. Briefly: Association rate constant for α-1-AChy binding to clipsin, second-order conditions. Set-up: Mr 25,000 band in gelatin enzymography. The settings on record: equimolar clipsin and α-1-AChy. How it is done:
The association rate constant for α-1-AChy binding to clipsin was determined under second-order conditions as described previously for α-1-AChy binding to other chymotrypsin-like proteases (Beatty et al., (1980) J. Biol. Chem. 255, 3931-3934). Using the titrated concentration of clipsin, an equimolar concentration of α-1-AChy was preincubated with Mg^2+ extract for various periods of time before addition of 2 mM substrate which stopped the reaction and was used to measure residual enzyme activity. The half-life time of reaction (t1/2) was calculated from a plot of .nu.^-1 versus t, and in turn used to calculate the association rate constant ^k assoc through the following: kassoc =1/t1/2 [Eγ], where [Eγ] stands for the total enzyme concentration (Beatty et al., (1980) J. Biol. Chem. 255, 3931-3934).
Using the titrated value for clipsin concentration in the Mg^2+ extract, we combined equimolar concentrations of clipsin and α-1-AChy to determine the association rate constant between these two proteins, as described previously (Equation 4 in Beatty et al., (1980) J. Biol. Chem. 255, 3931-3934). The ^k assoc was determined to be 2.9×10^6 M^-1 s^-1, a value falling between those determined previously for chymotrypsin and cathepsin G (Beatty et al., (1980) J. Biol. Chem. 255, 3931-3934).

Data set [10] has as its target T3, clipsin. As to the kind of experiment: Titration of clipsin activity in Mg2+ extract with α-1-AChy in vitro. The format is biochemical. Set-up: Mr 25,000 band in gelatin enzymography. Conditions: 20% Mg2+ extract.
[11] abbreviates: inhibitor 10 μM, 20% Mg2+ extract (1.4 nM clipsin), 2 mM Suc-Ala-Ala-Pro-Phe-p-nitroanilide, 1 h, 37° C., average of three.

As to bovine chymotrypsin (Bos taurus), in data set [1], the Km came out at 1800 µM, the kcat was found to be 80 s⁻¹ and the kcat/Km is given as 44,000 M^-1 S^-1. Also, in [2], the Michaelis-Menten constant (Km) was 130 µM, the kcat amounted to 120 s⁻¹ and the kcat/Km is recorded as 910,000 M^-1 S^-1.

On to `c1cnc2c(c1)ccc1cccnc12` [1,10-0-phenanthroline], for which the “Inhibition of clipsin activity by class-specific protease inhibitors (in words)” value at clipsin [3] (enzymography, 1 mM EDTA present) is listed as “Lack of complete inhibition”.

Take `O=C(O)CI` [iodoacetic acid]: the “Inhibition of clipsin activity by class-specific protease inhibitors (in words)” value on clipsin [3] was “not inhibited”.

`C[C@H](NC(=O)CCC(=O)O)C(=O)N[C@@H](C)C(=O)N1CCC[C@H]1C(=O)N[C@@H](Cc1ccccc1)C(=O)Nc1ccc([N+](=O)[O-])cc1` [R--Phe-p-nitroanilide, Suc-Ala-Ala-Pro-Phe-p-nitroanilide] (Suc-AAPF-pNA): in data set [4], the “kcat /Km” value is recorded as 4,800 M^-1 S^-1, the Michaelis constant (Km) is 3.3 mM and the kcat came to 16 s⁻¹. On bovine chymotrypsin [5], the “kcat /Km of chymotrypsin relative to clipsin” value turned out to be 16 fold.

Turning to `COC(=O)CCC(=O)N[C@@H](C)C(=O)N[C@@H](C)C(=O)N1CCC[C@H]1C(=O)N[C@H](B(O)O)C(C)C` [Sample 4, MeO-Suc-Ala-Ala-Pro-boro-Val-OH], at clipsin [3] (enzymography), the “Inhibition of clipsin by peptide boronic acids (in words)” value is recorded as “lack of inhibition”. Moreover, the remaining activity at 10 µM at clipsin [6] (setting [11]) amounted to 94%.

Regarding Bz-Pro-Phe-boro-Arg-OH [Sample 5], at clipsin [3] (enzymography), the “Inhibition of clipsin by peptide boronic acids (in words)” value was “only marginally”. Also, the “Relative Clipsin Activity (ΔOD as a percentage of the control value)” value on clipsin [6] (setting [11]) came to 84%.

For the molecule `CCN1C(=O)C=CC1=O` [N-ethylmaleimide], the “Inhibition of clipsin activity by class-specific protease inhibitors (in words)” value on clipsin [3] is recorded as “not inhibited”.

Consider `COC(=O)CCC(=O)N[C@@H](C)C(=O)N[C@@H](C)C(=O)N1CCC[C@H]1C(=O)N[C@@H](CCSC)C(=O)Nc1ccc([N+](=O)[O-])cc1` [R'--Met-p-nitroanilide] (MeOSuc-AAPM-pNA), for which, in data set [4], the “kcat /Km” value is given as 4,300 M^-1 S^-1, the Km is 0.54 mM and the kcat came to 2.3 s⁻¹. The “kcat /Km of chymotrypsin relative to clipsin” value on bovine chymotrypsin [5] was determined as 8.5 fold.

In the case of `COC(=O)CCC(=O)N[C@@H](C)C(=O)N[C@@H](C)C(=O)N1CCC[C@H]1C(=O)N[C@@H](C)B(O)O` [Sample 3, MeO-Suc-Ala-Ala-Pro-boro-Ala-OH], at clipsin [3] (enzymography), the “Inhibition of clipsin by peptide boronic acids (in words)” value is “lack of inhibition”. On clipsin [6] (setting [11]), the remaining activity at 10 µM turned out to be 97%.

Consider `O=S(=O)(F)Cc1ccccc1` [phenylmethylsulfonyl fluoride], for which the “Inhibition of clipsin activity by class-specific protease inhibitors (in words)” value on clipsin [3] is given as “inhibited clipsin activity”.

`COC(=O)CCC(=O)N[C@@H](C)C(=O)N[C@@H](C)C(=O)N1CCC[C@H]1C(=O)N[C@@H](Cc1ccccc1)B(O)O` [Sample 2, MeO-Suc-Ala-Ala-Pro-boro-Phe-OH]: in data set [7], the “Blocking of the clipsin-induced decrease of the protein doublet (in words)” value is “could be blocked”. Besides, in the data set with β-APP, the “Blocking of the clipsin-induced loss of β-APP immunoreactivity (in words)” value was “specifically blocked”. Further, the “Inhibition of clipsin by peptide boronic acids (in words)” value on clipsin [3] (enzymography) is “preferentially inhibited”. Moreover, the remaining activity at 10 µM at clipsin [6] (setting [11]) was 8%.

B1: α-1-antichymotrypsin (protein, UniProt P01011 24-423, looked up)
Alpha-1-antichymotrypsin: HPNSPLDEENLTQENQDRGTHVDLGLASANVDFAFSLYKQLVLKAPDKNVIFSPLSISTALAFLSLGAHNTTLTEILKGLKFNLTETSEAEIHQSFQHLLRTLNQSSDELQLSMGNAMFVKEQLSLLDRFTEDAKRLYGSEAFATDFQDSAAAKKLINDYVKNGTRGKITDLIKDLDSQTMMVLVNYIFFKAKWEMPFDPQDTHQSRFYLSKKKWVMVPMMSLHHLTIPYFRDEELSCTVVELKYTGNASALFILPDQDKMEEVEAMLLPETLKRWRDSLEFREIGELYLPKFSISRDYNLNDILLQLGIEEAFTSKADLSGITGARNLAVSQVVHKAVLDVFEEGTEASAATAVKITLLSALVETRTIVRFNRPFLMIIVPTDTQNIFFMSKVTNPKQA
With B1, the “kassoc reported for α-1-AChy binding to bovine chymotrypsin” value with bovine chymotrypsin [8] was 60000 M⁻¹ s⁻¹. Further, the “kassoc reported for α-1-AChy binding to human cathepsin G” value in the data set with human cathepsin G is 5.1e+07 M⁻¹ s⁻¹. Also, the “kassoc, association rate constant of α-1-AChy with clipsin” value with clipsin [9] amounted to 2.9e+06 M⁻¹ s⁻¹. Moreover, the “α-1-AChy concentration producing rapid inhibition of clipsin activity” value with clipsin [10] is reported as at least 3.5 nM. In addition, the “α-1-AChy necessary to inhibit 100% clipsin activity (titration point)” value in the data set with clipsin [10] (titration curve at 120 min preincubation) is reported as 1.4 nM. For the same molecule, the “Inhibition of clipsin activity in vitro (in words)” value in the data set with clipsin [6] (pilot experiments, […]) is “effective inhibitor”.
